# From patent US7163924B2, “Ketolide derivatives” (Chiron Corporation, priority 2003, dated 2007)
# Read-outs that look alike come from different tables or passages of the source.
# Experiment: In vivo pharmacokinetic studies of pyridyl substituted ketolides in rats (plasma and whole lung, LC-MS-MS)
# Conditions: male Sprague-Dawley rats; for clearance / Vd / AUC / bioavailability / half-life / Kp: rat; for clearance / Vd: IV = 5 mg/kg, PO = 15 mg/kg; for clearance: read-out: CL (clearance of the compound from plasma); for Vd: read-out: Vss (volume of distribution); for bioavailability: read-out: F, PO (% bioavailability); for Kp: whole lung vs plasma, read-out: L/P ratio, IV (ratio of drug in lung/plasma after IV dosing)
# Method: Animal Models. A total of 54 male Sprague-Dawley rats, weighing 200 grams in average, are evaluated for pharmacokinetic studies of representative substituted pyridyl ketolides. Rats are under overnight food restriction and receive water ad libitum. Rats are acclimated for approximately 5 days before antibiotic administration. Antibiotic Administration. Rats are given bolus administration through intravenous (IV) and oral (PO) routes. Representative substituted pyridyl ketolides and telithromycin, for comparison, are diluted in 0.85% saline to a concentration of 15.0 mg/ml, and the resulting pH is adjusted using 1N acetic acid until the compound is in solution. Approximately 200 μl of the compound solution is administered to the rats. The target dose for IV and PO administration is 5 mg/kg and 15 mg/kg, respectively. Sample Collection. Plasma and whole lung samples are collected from the rats. Plasma samples are obtained from blood samples by centrifugation at 3000 RPM for 10 min. Heparin is added in the plasma as an anticoagulant. Whole lung samples are homogenized in deionized water. Samples are stored at −80° C. A total of 9 time points are collected in triplicate at 0.083, 0.25, 0.5, 1, 2, 4, 6, 8, and 24 h. Ketolide concentrations in plasma and lung are determined by well-established non-GLP LC-MS-MS methods. PK parameters are estimated from the raw bioanalytical data using WinNolin software (Version 4.0, Pharsight Corporation, CA). All representative compounds are compared to telithromycin.
# [1] = plasma, PO 15 mg/kg vs IV 5 mg/kg
# [2] = IV bolus 5 mg/kg, plasma, read-out: t1/2, IV Plasma (converted)
# [3] = PO 15 mg/kg, plasma, read-out: t1/2, PO Plasma (converted)
clearance (plasma),Vd (plasma),"AUC (plasma, IV bolus 5 mg/kg)",bioavailability [1],half-life [2],Kp (IV bolus 5 mg/kg),half-life [3],"t1/2, IV Plasma (IV bolus 5 mg/kg, plasma)","F, PO (% bioavailability) (PO 15 mg/kg vs IV 5 mg/kg)","t1/2, PO Plasma (PO 15 mg/kg, plasma)",Structure (SMILES)
48 mL/min/kg,6.5 L/kg,1700 ng·h/mL,54%,108 min,27,198 min,,,,CC[C@H]1OC(=O)[C@H](C)C(=O)[C@H](C)[C@@H](O[C@@H]2O[C@H](C)C[C@H](N(C)C)[C@H]2O)[C@@](C)(OC)C[C@@H](C)C(=O)[C@H](C)[C@H]2N(CCCCn3cnc(-c4ccc(C)nc4)c3)C(=O)O[C@]12C [Cmpd B]
25 mL/min/kg,4.3 L/kg,3000 ng·h/mL,100%,126 min,32,,,,,CC[C@H]1OC(=O)[C@H](C)C(=O)[C@H](C)[C@@H](OC2O[C@H](C)C[C@H](N(C)C)[C@H]2O)[C@@](C)(OC)C[C@@H](C)C(=O)[C@H](C)[C@H]2N(CCCCn3cnc(-c4ccc(OC)nc4)c3)C(=O)O[C@]12C (some centres unmarked) [Cmpd D]
38 mL/min/kg,5.6 L/kg,2200 ng·h/mL,86%,96 min,29,198 min,,,,CC[C@H]1OC(=O)[C@H](C)C(=O)[C@H](C)[C@@H](O[C@@H]2O[C@H](C)C[C@H](N(C)C)[C@H]2O)[C@@](C)(OC)C[C@@H](C)C(=O)[C@H](C)[C@H]2N(CCCCn3cnc(-c4ccc(Cl)nc4)c3)C(=O)O[C@]12C [Cmpd E]
100 mL/min/kg,5 L/kg,,,,16,,1.0 h,11%,1.5 h,"CC[C@H]1OC(=O)[C@H](C)C(=O)[C@H](C)[C@@H](O[C@@H]2O[C@H](C)C[C@H](N(C)C)[C@H]2O)[C@](C)(OC)C[C@@H](C)C(=O)[C@H](C)[C@H]2N(CCCCn3cnc(-c4cccnc4)c3)C(=O)O[C@]12C [Telithromycin, telithromycin, reference compound]"
